Test [1] deals with HUVEC. The test is classed as cell-based, human. In outline:
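HUVEC plated at 2000 cells/well overnight, then exposed to peptides in fully supplemented medium for three days. WST-1 added in serum-free EBM-2 for four hours and absorbance read at 450 nm. Percent live cells taken relative to untreated cells in complete medium with 0.2% DMSO.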

Test [2] deals with microvascular endothelial cells (MEC). In words: MEC adhesion assay. The test is classed as cell-based. How it is done: Similar to the migration assays, the inhibition activity of the peptide in cellular adhesion was assessed using the RT-CIM technology. In this case, 25,000 cells/well were plated in 16 wells E-plates (Roche, Basel Switzerland) in the presence or absence of the peptide. The adhesion was monitored over time (3 hours) by measuring changes in the electrical impedance, which is a direct measure of the cells adhering on the electrodes. […] Assays were performed in at least two independent replicates and each replicate was performed using two experimental duplicates.

The test system is the same in test [3]. In words: MEC migration assay. The test is classed as cell-based. How it is done: The inhibitory potential of the peptides was measured using a real time migration assay system based on electrical impedance (RT-CIM, ACEA Biosciences, CA). CIM 16 well plates (Roche, 05665817001) are composed of a top and bottom chamber separated by a microporous (8 μm) polycarbonate membrane. The membrane was coated with fibronectin (20 μg/mL), and 45,000 cells/well in serum free media with or without peptides were added to the top compartment. Media with chemoattractant (i.e., fully supplemented EBM-2) was added to the bottom compartment of the chamber and the plate was incubated at 37° C. for 20 hours. The sensors integrated on the bottom side of the membrane monitor and continuously record changes in impedance as the cells move through the membrane. The RT-CIM technology allows for easy quantification of cell migration by monitoring the cell index derived from the measured impedances. Assays were performed in at least two independent replicates and each replicate was performed using two experimental duplicates.

Test [4] relates to VEGF mediated retinal neovascularization. The test can be described thus: Rho/VEGF transgenic mice model of retinal neovascularization. It counts as in vivo. Particulars: 0.01, 0.1, or 1 μg into the mouse eye. How it is done:
The ocular Rho/VEGF transgenic mice model of wet age-related macular degeneration also was used to test some of the peptides. Transgenic mice in which the rhodopsin promoter drives expression of VEGF in photoreceptors have the onset of VEGF production at P7 and develop extensive NV along the outer surface of the retina by P21 (Okamoto et al., 1997; To be et al., 1998). Mice hemizygous for the transgene (n=15 for each dose) were given an intraocular injection of 1 μl of PBS containing 0.01, 0.1, or 1 μg of peptide or scramble peptide in one eye at P7 and P14 and at P21 the mice were anesthetized, perfused with fluorescein-labeled dextran, and the total area of neovascularization on the outer surface of the retina was measured on retinal flat mounts by image analysis as above.

In test [5] the test system is HUVEC. The test is classed as cell-based, human. The method in brief: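 Adhesion of 25,000 cells per well, with or without peptide, followed by real-time electrical impedance on electrode plates over 3 hours. At least two independent replicates, each run in duplicate.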
The source holds these as a separate data set.

A further test has as its system MDA-MB-231 xenograft. The test can be described thus: MDA-MB-231 orthotopic breast tumor xenograft. The test is classed as in vivo, SCID mice. How it is done:
For primary tumor inhibition studies, 1−2×10^6 tumor cells were injected into 4-6 wk old female SCID mice. After the tumors reached a size of 100 mm^3 the animals were randomized into groups of 10 animals each. The animals were treated with vehicle, SP2012, SP2000, or SP2024. The peptides were administered subcutaneously daily. Dosing was continued for 3 or 4 weeks and tumor sizes were measured every 3 days using calipers. The tumor volume was estimated using the formula V=a^2b/2 where a and b are the smaller and larger diameters.
For the tumor xenograft assay, animals were housed and treated according to the approved animal protocol of the Institutional Care and Use Committee at Johns Hopkins Medical Institution (JHMI). Orthotopic breast tumors were initiated in SCID mice using MDA-MB-231 cells. 2×10^6 cells per 100 μL aliquot of single cell suspension were injected in the breast mannary fat pad. Tumors reached volumes of 75 mm^3 to 100 mm^3 in approximately 14-21 days. Mice were randomized and arranged in groups (8 mice per group) with similar tumor volumes (no statistical difference among averages) and treatment was commenced. Peptides were administered once per day intraperitoneally (i.p.) at doses of 10 mg/kg (subcutaneous delivery was also tested with certain peptides). Paclitaxel was administered at 5 mg/kg once a week, and to maintain the daily treatment regime PBS was administered on the non-treatment days. Tumors were measured every fourth day using calipers and the tumor volume was calculated using the formula V=ab^2/2, where a is the larger diameter and b is the smaller diameter.

The test system of test [6] is MDA-MB-231-luc-D3H2LN cells. The test can be described thus: Tail vein assay of cancer metastasis (lung metastasis). The test is classed as in vivo. Particulars: luciferase-transfected MDA-MB-231 cells in nude mice, IVIS. On the procedure:
The tail vein assay of cancer metastasis protocol from Current Protocols of Cell Biology was used to measure the effect of SP2024 on lung metastasis (Elkin and Vlodaysky, 2001). […] of 5×10^5 cells/mL luciferase-transfected MDA-MB-231-luc-D3H2LN (Caliper Biosciences) cell suspension was slowly injected into nude mice (nude mice are easier to image because of their lack of fur). Two hours before cell inoculation vehicle or 10 mg/kg SP2024 were administered subcutaneously on a daily basis. Bioluminescence to detect metastasis was measured by IVIS imaging (Caliper Biosciences) via IP injection of 150 mg/kg D-luciferin.

Like-named read-outs stand apart in the source and are kept apart here. Ends that are not written are not given here.

LRRFSTMPFMFININNVINF-NH2 [SP2024]: the IC50 with HUVEC [1] was determined as 1.29 µM; in the test with HUVEC [1] (HUVEC, tables 5, 8-10 and text, read-out: IC50 ± 95% CI (μM), proliferation), 7.45 ± 5.7 µM; with HUVEC [5] (3 h), 2.35 ± 1.3 µM. The “Activity in Proliferation” value with HUVEC [1] (HUVEC, Yes/No summary) is reported as “Yes”. In test [2], the “inhibition of adhesion of MEC” value is reported as “quite active”. For the same substance, the “inhibition of migration of MEC” value in test [3] is “quite active”. For the same substance, in test [4], the “area of retinal neovascularization” value is on record as “generally decreased”. Also, the “Adhesion Inhibition (100 uM)” value with HUVEC [5] (HUVEC, 100 uM peptide) is 94.45%. In the test with HUVEC [5] (HUVEC, Yes/No summary, active = inhibitory potential greater than 30%), the “Activity in Adhesion” value is on record as “Yes”. The “suppression of tumor growth” value in the test with MDA-MB-231 xenograft (MDA-MB-231 xenograft in mice, 10 mg/kg daily) is on record as “inhibited tumor growth significantly over the control”. Besides, in the test with MDA-MB-231 xenograft (mice), the MDA-MB-231 xenograft inhibition result is “Active”. The lung metastasis entry in test [6] is listed as “inhibits lung metastasis”.
